# Reference: ChEMBL document CHEMBL4052785, “Discovery of (R)-5-(benzo[d][1,3]dioxol-5-yl)-7-((1-(vinylsulfonyl)pyrrolidin-2-yl)methyl)-7H-pyrrolo[2,3-d]pyrimidin-4-amine (B6) as a potent Bmx inhibitor for the treatment of NSCLC” (Bioorg Med Chem Lett, 2017)
# Tests used:
# [1] = system: A549; experiment: Antiproliferative activity against human A549 cells harboring wild type EGFR after 72 hrs by MTT assay; assay type: functional, cell-based; settings: A549, 72 h
# [2] = system: NCI-H1975; experiment: Antiproliferative activity against human NCI-H1975 cells harboring EGFR L858R/T790M mutant after 72 hrs by MTT assay; assay type: functional, cell-based; settings: NCI-H1975, 72 h
# [3] = Aqueous solubility of the compound at 1 mg; assay type: physicochemical
# [4] = system: HCC827; experiment: Antiproliferative activity against human HCC827 cells harboring EGFR Del19 mutant after 72 hrs by MTT assay; assay type: functional, cell-based; settings: HCC827, 72 h
# [5] = system: NCI-H1975; experiment: Antitumor activity against human NCI-H1975 cells xenografted in nude mouse assessed as tumor growth inhibition at 25 mg/kg administered via oral gavage qd measured every 2 days up to 18 days relative to control; assay type: functional; settings: read-out: TGI
Compound,IC50 [1] [nM],IC50 [2] [nM],solubility [3] [µg/mL],IC50 [4] [nM],inhibition in vivo at 25 mg/kg [5] [%]
C=CC(=O)N1CCC[C@@H]1Cn1cc(-c2ccc3c(c2)OCO3)c2c(N)ncnc21,12900,2920,100,–,–
C=CC(=O)N1CCC[C@@H](n2nc(-c3ccc(Oc4ccccc4)cc3)c3c(N)ncnc32)C1 [IBRUTINIB],21800,1270,< 10,39,59.6
"C=CC(=O)N1CCC(Cn2cc(-c3ccc(Oc4ccccc4)cc3)c3c(N)ncnc32)C1 (single isomer, unassigned)",14200,6310,< 10,–,–
C=CS(=O)(=O)N1CC[C@H](Cn2cc(-c3ccc(Oc4ccccc4)cc3)c3c(N)ncnc32)C1,13000,910,< 10,581,–
"C=CC(=O)N1CCC(Cn2cc(-c3ccc4c(c3)OCO4)c3c(N)ncnc32)C1 (single isomer, unassigned)",8240,6300,100,–,–
C=CC(=O)N1CCC[C@@H]1Cn1cc(-c2ccc(Oc3ccccc3)cc2)c2c(N)ncnc21,15500,1920,< 10,–,–
C=CS(=O)(=O)N1CCC[C@@H]1Cn1cc(-c2ccc(Oc3ccccc3)cc2)c2c(N)ncnc21,7440,440,< 10,504,–
C=CS(=O)(=O)N1CC[C@H](Cn2cc(-c3ccc4c(c3)OCO4)c3c(N)ncnc32)C1,1780,330,100,16,–
